The source of these data is US6723699B1, “Treating disorders by application of insulin-like growth factors and analogs” (Cephalon, Inc., priority 1989, dated 2004).

One data set has as its target T1, IGF-I receptor (Rattus norvegicus, UniProt P24062).
T1 construct: Brain tissue containing the cerebral cortex and cerebellum was dissected from adult Sprague-Dawley rats; from tissue; host or cells: adult Sprague-Dawley rat brain (cerebral cortex and cerebellum), homogenate pellet
Nature of the data set: 125I-[Threonine59]IGF-I displacement (IGF-I receptor competition) assay, rat brain homogenate. The data set is classed as binding. As to conditions: for PERCENT MAX. BOUND: peptide 100 μM. The procedure: Brain tissue containing the cerebral cortex and cerebellum was dissected from adult Sprague-Dawley rats (Hilltop Lab Animals, Inc. Scottsdale, Pa.) and homogenized at low power for 5 minutes in a Brinkmann Polytron homogenizer (Westbury, N.Y.) containing 50 volumes of ice-cold buffer consisting of 10 mM HEPES, 0.5% BSA, 0.0125% NEM, 0.025% bacitracin, and 100 KIU/ml aprotinin, pH 7.6 (Bohannon et al., Endocrinology 119:943-945 (1986). Following homogenization, the tissue was collected after centrifugation at 7800×g for 20 minutes and resuspended in 10 volumes of assay buffer. Tissue (50 μl), 100 μl ^125I-[Threonine^59]IGF-I (20 pM), and 50 μl of buffer or peptides of varying concentration were added to 96-well plates and incubated on ice for 3 hours. After the incubation period, the tissue was collected on Whatman GF/C filters that had been pre-soaked in 0.01% polyethylenimine and washed four times with ice-cold assay buffer using a Brandel cell harvester (Gaithersburg, Md.). The filters were removed and the bound ^125I-[Threonine 59]IGF-I was measured using a Beckman Model 5500B Gamma Counter.

In data set [1] the test system is E18 cortical neuronal cultures. The data set is described as follows: Cortical neuronal cell survival, calcein-AM fluorometric viability assay. Particulars: for total number of cells surviving relative to control (in words): 100 μM peptide, 4 days, insulin/serum-free media. The format is cell-based, rat. The procedure:
To determine whether carboxy-terminal linear peptide derivatives of IGFs can promote the survival of cortical neuronal cells, dissociated cultures of embryonic rat cortex were prepared and assayed for the total number of viable cells present after incubation in the presence or absence of peptide. Cortices were dissected from E18 embryonic rats, dissociated by enzymatic digestion or mechanical dissociation and seeded at a density of 6.25×10^4 cells/cm^2 in defined insulin/serum-free media (Bottenstein and Sato, PNAS, 76:514-517, (1979)) in the presence or absence of 100 μM peptide. […] This compound is taken up by all cells but can only be converted to a fluorescent derivative by live cells. The relative fluorescence values obtained reflect the total viable cell number. […] NO: 5) (Example 22), and the amino acid sequence […] To determine the potency of the carboxy terminal peptides we analyzed the ability of peptides to promote cell survival. We measured the total number of surviving cells within cortical neuronal cultures relative to basal control cultures. FIG. 16 illustrates the concentration-response relationship for peptide […] All peptides examined are effective within the micromolar concentration range in the fluorometric viability assay.

Data set [2] deals with E18 rat cortices cultures. Nature of the data set: Cortical neurite outgrowth / regeneration. The data set is classed as cell-based. Particulars: 100 μM peptide, 96 hours. The procedure: To determine whether carboxy-terminal linear peptides of IGFs could promote cortical neurite regeneration, dissociated preparations of E18 rat cortices were cultured in defined insulin/serum-free media in the presence or absence of 100 μM peptides: IGF-II(54-67) (SEQ ID NO:3), IGF-I(55-70) (SEQ ID NO:4), peptide TYCAPAKSE (SEQ ID NO:1), peptide EPYCAPPAKSE (SEQ ID NO:5), IGF-II(54-67; D-Y) (SEQ ID NO:45) and IGF-II(58-67) (SEQ ID NO:2). The cultures were observed 96 hours after peptide exposure and photomicrographs were taken.

The test system of data set [3] is 125I-[Threonine59]IGF-I binding to brain tissue sections. The data set is described as follows: 125I-[Threonine59]IGF-I binding displacement on rat brain tissue sections. The procedure: Brains were removed intact from adult Sprague-Dawley rats, frozen on powdered dry ice, and cut into 20 μm sections (at the level of the cerebellum and brain stem) which were
thaw-mounted onto gelatin-coated glass microscope slides (Herkenham and Pert, J. Neurosci. 2:1129-1149 (1982)). Using a modification of the method of Bohannon et al. (1986), the tissue sections were covered with 250 μl of HEPES assay buffer (see Example 1) containing 0.01 nM ^125I-[Threonine^59]IGF-I alone or in combination with unlabeled IGF-I, IGF-II, or synthetic peptide fragments thereof. The sections were incubated at 4° C. for 24 hours and then rinsed in three 1-minute changes (200 ml each) of ice-cold HEPES assay buffer. The tissue sections were then wiped off the slides with filter paper, and the tissue-bound radioactivity was measured in a Beckman Model 5500B Gamma Counter.

Data set [4] relates to brain ornithine decarboxylase. The data set is described as follows: Induction of brain ornithine decarboxylase after intracerebral injection, 4 day old rats. The data set is classed as in vivo, rat. As to conditions: 6 hours. The method, then:
The in vivo activity of IGF-I, IGF-II or synthetic peptide derivatives of these molecules was tested using a biochemical marker for CNS neurotrophic activity, the induction of brain ornithine decarboxylase. The induction (i.e. increased activity) of ornithine decarboxylase has been reported to be a general marker for the actions of a variety of trophic factors. (Schwartz et al., Dev. Brain Res. 1:403-413 (1981); Kanje et al., Brain Res. 381:24-28 (1986); Russell et al., Life Sci. 19:1297-1306 (1976); MacDonnell et al. Proc. Natl. Acad. Sci. USA 74, 4681-4684 (1977); […] et al. Proc. Natl. Acad. Sci. USA 82, 4365-4368 (1985)). Sprague-Dawley rats, 4 days old, were injected intracerebrally (in the area of the lateral ventricle) with 5 μl of 0.1 M phosphate-buffered saline (PBS) containing IGF-I, IGF-II or a synthetic peptide derivative (1.25-2.5 μg dose, with 6 animals per treatment group). After 6 hours, the brains were removed, and ornithine decarboxylase was assayed essentially as described by Lewis et al., Proc. Natl. Acad. Sci. USA 75:1021-1023 (1978).

For data set [5], the system named is cultured rat cortical cells. Nature of the data set: [3H]-leucine incorporation in cultured rat cortical cells. The data set is classed as cell-based. Particulars: low density 24 hour mixed cortical cultures. The procedure: (§1) The ability of IGF-I and a synthetic derivative of IGF-II (IGF-II(54-67)) to increase the incorporation of [^3H]-leucine and to promote the survival of neurite bearing cells was examined in cultured rat cortical cells (the numbers “54-67” in IGF-II indicate the fragment includes amino acid residues 54-67 of native IGF-II).
(§2) Measurements were performed, using standard techniques known to those skilled in the art, on dissociated cortical cells obtained from day 18-19 embryonic rats. Cells were seeded at 1.5×10^4/cm^2 on poly-1-ornithine-laminin coated plastic tissue culture cells in serum-free N2 medium (Bottenstein et al. Proc. Natl. Acad. Sci. U.S.A. 76: 514-517 (1978)). [^3H]-leucine was added to cells at plating for the incorporation assay. Cultures were terminated 24 hours after plating and measured for either [^3H]-leucine incorporation or for the number of neuritic cells by microscopic examination.

A further data set has as its system cortical neurons. Nature of the data set: Survival of neurite bearing cells in cultured rat cortical cells. The data set is classed as cell-based. As to conditions: 24 hours after plating. The procedure:
as §1, §2

The format of data set [6] is in vitro ADME. The procedure: The peptides of Examples 22 and 23 are modified peptides containing the D isomer of tyrosine (D-Y) at position 59 within IGF-II amino acids 54-67 or 58-67. These modifications were made to prevent peptide bond degradation due to enzymatic cleavage amino terminal to position 60 of IGF-II(54-67) and (58-67). Using a non-denaturing HPLC size exclusion chromatography technique the integrity of peptides IGF-II(54-67) and IGF-II(58-67) was analyzed before and after incubation with cells.

Where no end group is shown, it is not given here. [ ]: non-standard residue; d: D form. Tyr(3,5-I2) = N[C@@H](Cc1cc(I)c(O)c(I)c1)C(=O)O

T1 sequence (P24062 31-737 limits assumed): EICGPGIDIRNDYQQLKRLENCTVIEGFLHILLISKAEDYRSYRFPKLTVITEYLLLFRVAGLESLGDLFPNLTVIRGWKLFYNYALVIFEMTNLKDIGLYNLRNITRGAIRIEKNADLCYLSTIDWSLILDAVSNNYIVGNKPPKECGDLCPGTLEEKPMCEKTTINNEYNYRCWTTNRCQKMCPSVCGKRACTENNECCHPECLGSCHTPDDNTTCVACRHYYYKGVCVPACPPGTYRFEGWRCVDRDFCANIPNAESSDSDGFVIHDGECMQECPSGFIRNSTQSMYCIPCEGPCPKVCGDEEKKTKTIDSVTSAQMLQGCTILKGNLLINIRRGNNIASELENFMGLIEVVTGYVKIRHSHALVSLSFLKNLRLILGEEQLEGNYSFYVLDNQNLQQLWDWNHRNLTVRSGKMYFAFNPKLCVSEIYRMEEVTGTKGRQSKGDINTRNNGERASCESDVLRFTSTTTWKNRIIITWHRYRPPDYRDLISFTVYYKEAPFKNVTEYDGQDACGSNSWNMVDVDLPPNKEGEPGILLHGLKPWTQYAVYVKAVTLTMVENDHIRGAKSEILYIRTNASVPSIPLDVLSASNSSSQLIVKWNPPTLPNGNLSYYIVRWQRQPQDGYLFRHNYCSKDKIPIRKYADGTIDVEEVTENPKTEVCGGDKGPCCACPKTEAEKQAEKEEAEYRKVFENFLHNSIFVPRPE
T1 sequence (P24062 742-1370 partner limits assumed): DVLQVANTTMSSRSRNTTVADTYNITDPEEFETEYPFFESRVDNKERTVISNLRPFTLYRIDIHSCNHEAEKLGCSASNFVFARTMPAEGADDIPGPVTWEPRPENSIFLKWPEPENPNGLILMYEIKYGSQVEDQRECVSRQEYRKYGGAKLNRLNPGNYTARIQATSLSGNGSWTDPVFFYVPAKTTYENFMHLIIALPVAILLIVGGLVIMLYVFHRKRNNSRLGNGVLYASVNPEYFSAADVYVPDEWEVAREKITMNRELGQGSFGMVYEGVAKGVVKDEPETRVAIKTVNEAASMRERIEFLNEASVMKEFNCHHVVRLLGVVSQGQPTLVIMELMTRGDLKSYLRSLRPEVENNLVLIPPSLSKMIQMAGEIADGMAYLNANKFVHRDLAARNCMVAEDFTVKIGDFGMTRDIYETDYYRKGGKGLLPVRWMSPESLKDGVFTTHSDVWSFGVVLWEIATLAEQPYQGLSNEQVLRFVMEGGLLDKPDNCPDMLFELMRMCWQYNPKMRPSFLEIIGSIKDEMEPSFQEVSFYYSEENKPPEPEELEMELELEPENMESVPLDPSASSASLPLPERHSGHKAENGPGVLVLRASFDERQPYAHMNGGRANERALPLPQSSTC

As for APLKP AKSA (APLKPAKSA) [IGF-I(62-70)], the “PERCENT MAX. BOUND” value with IGF-I receptor stood at 83%.

Regarding TDYCAPAKSE (T[dY]CAPAKSE), the “total number of cells surviving relative to control (in words)” value in data set [1] is “increased the total number of cells surviving”.

In the case of TYCAPAKSE, in data set [1], the “total number of cells surviving relative to control (in words)” value is listed as “increased the total number of cells surviving”. Besides, the “concentration-response of cortical neuronal cell survival (in words)” value in data set [1] (relative to basal control cultures) is recorded as “promotes cortical neuronal cell survival in a dose-dependent manner”. Besides, in data set [2], the “neurite outgrowth / regeneration (in words)” value is listed as “neurite regenerative responses were observed”.

As for YCAPA, in data set [1], the “total number of cells surviving relative to control (in words)” value is listed as “increased the total number of cells surviving”.

LETYC ATP (LETYCATP) [IGF-II (56-63)]: the “total number of cells surviving relative to control (in words)” value in data set [1] is reported as “increased the total number of cells surviving”.

“ALLET YCATP AKSE (ALLETYCATPAKSE) [IGF-II(54-67)]”: the “PERCENT MAX. BOUND” value worked out at 94% with IGF-I receptor, 132% in data set [3] (peptide .025 mM) and 167% in data set [3] (peptide .25 mM). Further, the “displacement of 125I-[Threonine59]IGF-I (in words)” value with IGF-I receptor (rat brain homogenate) was “not significantly effective displacers”. Moreover, the “brain ornithine decarboxylase activity (in words)” value in data set [4] is recorded as “increased brain ornithine decarboxylase activity”. Moreover, in data set [5], the “[3H]-leucine incorporation (in words)” value was “increased [^3H]-leucine incorporation”. Moreover, the “survival of cortical neurons (neurite bearing cells) (in words)” value with cortical neurons is on record as “increased the survival of cortical neurons”. For the same substance, the “total number of cells surviving relative to control (in words)” value in data set [1] is on record as “increased the total number of cells surviving”. Further, in data set [2], the “neurite outgrowth / regeneration (in words)” value is on record as “neurite regenerative responses were observed”.

Consider CATPA KSE (CATPAKSE) [IGF-II (60-67)], for which the “total number of cells surviving relative to control (in words)” value in data set [1] is on record as “increased the total number of cells surviving”.

As to TYCAP A (TYCAPA), in data set [1], the “total number of cells surviving relative to control (in words)” value was “increased the total number of cells surviving”.

With TYCAT PAK (TYCATPAK) [IGF-II (58-65)], the “total number of cells surviving relative to control (in words)” value in data set [1] is “increased the total number of cells surviving”.

Consider EPYCAPPAKSE, for which, in data set [1], the “total number of cells surviving relative to control (in words)” value was “increased the total number of cells surviving”. Besides, the “neurite outgrowth / regeneration (in words)” value in data set [2] is on record as “neurite regenerative responses were observed”.

Take TPAKS E (TPAKSE) [IGF-II(62-67)]: the “PERCENT MAX. BOUND” value in the data set with IGF-I receptor was 83%.

Regarding CAPAKSE [CAPAK SE], in data set [1], the “total number of cells surviving relative to control (in words)” value is “increased the total number of cells surviving”.

For the substance “GYGSS SRRAP QT (GYGSSSRRAPQT) [IGF-I(30-41)]”, the “PERCENT MAX. BOUND” value in the data set with IGF-I receptor is 94%.

On to “TY(I2)CAP AKSE (T[Tyr(3,5-I2)]CAPAKSE) [iodinated-TYCAPAKSE]”, for which the “total number of cells surviving relative to control (in words)” value in data set [1] is listed as “increased the total number of cells surviving”.

In the case of ALLEKYCAKPAKSE [ALLEK YCAKP AKSE], the “total number of cells surviving relative to control (in words)” value in data set [1] is “increased the total number of cells surviving”.

For EALLETYCATPAKSE [EALLE TYCAT PAKSE], in data set [1], the “total number of cells surviving relative to control (in words)” value is given as “increased the total number of cells surviving”.

As to RRLEMYCAPLKPAKSA [IGF-I(55-70)], in data set [1], the “total number of cells surviving relative to control (in words)” value is “increased the total number of cells surviving”. The “neurite outgrowth / regeneration (in words)” value in data set [2] was “neurite regenerative responses were observed”.

As to YCAPAKSE [YCAPA KSE], the “total number of cells surviving relative to control (in words)” value in data set [1] was “increased the total number of cells surviving”.

Consider TYCATPAKSE [IGF-II(58-67)], for which, in data set [1], the “total number of cells surviving relative to control (in words)” value is listed as “increased the total number of cells surviving”. In addition, the “neurite outgrowth / regeneration (in words)” value in data set [2] is “neurite regenerative responses were observed”.

Take APSTCEYKA [APSTC EYKA]: the “total number of cells surviving relative to control (in words)” value in data set [1] was “increased the total number of cells surviving”.

With “ALLETDYCATPAKSE (ALLET[dY]CATPAKSE) [IGF-II(54-67; D-Y)]”, the “total number of cells surviving relative to control (in words)” value in data set [1] is recorded as “increased the total number of cells surviving”. Moreover, in data set [6], the “stability against degradation when incubated with cells (in words)” value is recorded as “stabilized against degradation when incubated with cells”. In addition, the “neurite outgrowth / regeneration (in words)” value in data set [2] is “neurite regenerative responses were observed”.

With “TDYCATPAKSE (T[dY]CATPAKSE) [IGF-II(58-67; D-Y)]”, in data set [1], the “total number of cells surviving relative to control (in words)” value is given as “increased the total number of cells surviving”.
